Each structure is given as a SMILES string.

This experiment concerns the target TNFα (Homo sapiens, UniProt P01375). The experiment can be described thus: HEK-Blue hTNFα reporter assay. The format is cell-based. Also on record: purchased R&D biosystem (R&D Systems) 210-TA-020/CF. As to conditions: HEK-Blue hTNFα reporter cells, SEAP readout; read-out: IC50 Range. An outline of the steps:
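IC50 from 4-parameter regression of % inhibition, with OD620 of secreted SEAP (QUANTI-Blue, 1 h) referenced to cells with and without hTNFα. HEK-Blue TNFα reporter cells were exposed 24 h to compound premixed 1 h with hTNFα ([…]).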

Sequence of TNFα (P01375 77-233 limits assumed): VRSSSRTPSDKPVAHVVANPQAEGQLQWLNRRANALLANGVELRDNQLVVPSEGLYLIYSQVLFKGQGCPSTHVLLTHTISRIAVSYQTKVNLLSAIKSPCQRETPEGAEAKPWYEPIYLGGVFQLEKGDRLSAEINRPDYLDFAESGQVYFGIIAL

As for `[2H]C([2H])([2H])N1C(=O)c2cccc(OC(F)F)c2[C@H]2C[C@@H]1c1nn3cc(C)c(-c4cnc([C@]5(N)C[C@@](C)(O)C5)nc4)nc3c12` [Example 215], the IC50 is < 25 nM.

`[2H]C([2H])([2H])N1C(=O)c2cccc(OC(F)F)c2[C@H]2C[C@@H]1c1nn3cc(C)c(-c4cnc(C5(N)CCC5)nc4)nc3c12` [Example 216]: the IC50 was < 25 nM.

`C[C@]1(C#N)C[C@](N)(c2ccc(-c3ccn4nc5c(c4n3)[C@@H]3C[C@H]5NC(=O)c4cccc(OC(F)F)c43)cn2)C1` [Example 217]: the IC50 is < 25 nM.

For `[2H]C([2H])([2H])N1C(=O)c2cccc(OC(F)F)c2[C@H]2C[C@@H]1c1nn3ccc(-c4cnc([C@]5(N)C[C@@](C)(O)C5)nc4)nc3c12` [Example 218], the concentration for half-maximal inhibition (IC50) was < 25 nM.

As to `C[C@]1(O)C[C@](N)(c2ccc(-c3ccn4nc5c(c4n3)[C@@H]3C[C@H]5NC(=O)c4cccc(OC(F)F)c43)cn2)C1` [Example 220], the IC50 was 25 to 100 nM.

Turning to `[2H]C([2H])([2H])N1C(=O)c2cccc(OC(F)F)c2[C@H]2C[C@@H]1c1nn3ccc(-c4cnc(C5(N)CCC5)c(F)c4)nc3c12` [Example 221], the concentration for half-maximal inhibition (IC50) was < 25 nM.

For the compound `[2H]C([2H])([2H])N1C(=O)c2cccc(OC(F)F)c2[C@H]2C[C@@H]1c1nn3ccc(-c4cnc([C@]5(N)C[C@@](C)(O)C5)nc4)cc3c12` [Example 222], the IC50 was < 25 nM.

Turning to `C[C@]1(O)C[C@](N)(c2ncc(-c3nc4c5c(nn4cc3F)[C@H]3C[C@@H]5c4c(OC(F)F)cccc4C(=O)N3)cn2)C1` [Example 223], the IC50 is < 25 nM.

For the compound `C[C@]1(O)C[C@](N)(c2ccc(-c3ccn4nc5c(c4c3)[C@@H]3C[C@H]5NC(=O)c4cccc(OC(F)F)c43)cn2)C1` [Example 224], the half-inhibitory concentration (IC50) was < 25 nM.

For `[2H]C([2H])([2H])N1C(=O)c2cccc(OC(F)F)c2[C@H]2C[C@@H]1c1nn3cc(F)c(-c4cnc([C@]5(N)C[C@@H](O)C5)c(F)c4)nc3c12` [Example 225], the IC50 is < 25 nM.

With `COc1cccc2c1[C@H]1C[C@H](c3nn4ccc(-c5cnc(C6(N)CCC6)nc5)cc4c31)N(C)C2=O` [Example 226], the 50% inhibitory concentration (IC50) is < 25 nM.

For `[2H]C([2H])([2H])N1C(=O)c2cccc(OC(F)F)c2[C@H]2C[C@@H]1c1nn3cc(F)c(-c4cnc([C@]5(N)C[C@@H](C#N)C5)nc4)nc3c12` [Example 227], the concentration for half-maximal inhibition (IC50) was < 25 nM.

In the case of `[2H]C([2H])([2H])N1C(=O)c2cccc(OC(F)F)c2[C@H]2C[C@@H]1c1nn3cc(F)c(-c4cnc(C5(N)CC(F)(F)C5)nc4)nc3c12` [Example 228], the IC50 is < 25 nM.

Consider `C[C@]1(O)C[C@](N)(c2ncc(-c3ccn4nc5c(c4c3)[C@@H]3C[C@H]5NC(=O)c4ccc(F)c(OC(F)F)c43)cn2)C1` [Example 229], for which the half-inhibitory concentration (IC50) was < 25 nM.

Consider `[2H]C([2H])([2H])N1C(=O)c2cccc(OC(F)F)c2[C@H]2C[C@@H]1c1nn3ccc(-c4cnc([C@]5(N)C[C@@](C)(C#N)C5)nc4C)nc3c12` [Example 230], for which the IC50 is < 25 nM.

As for `[2H]C([2H])([2H])N1C(=O)c2cccc(OC(F)F)c2[C@H]2C[C@@H]1c1nn3ccc(-c4cnc([C@]5(N)C[C@@](C)(C#N)C5)nc4C)cc3c12` [Example 231], the IC50 is < 25 nM.

For `[2H]C([2H])([2H])N1C(=O)c2cccc(OC(F)F)c2[C@H]2C[C@@H]1c1nn3ccc(-c4cnc([C@]5(C#N)C[C@@](C)(N)C5)nc4)nc3c12` [Example 232], the half-maximal inhibitory concentration (IC50) is 100 to 1000 nM.

For `NC1(c2ncc(-c3ccn4nc5c(c4c3)[C@@H]3C[C@H]5NC(=O)c4cccc(OC5CC5)c43)cn2)CCC1` [Example 233], the IC50 fell in the range of 25 to 100 nM.

For `Cc1nc(C2(N)CCC2)ncc1-c1ccn2nc3c(c2c1)[C@@H]1C[C@H]3NC(=O)c2cccc(OC(F)F)c21` [Example 234], the IC50 was < 25 nM.

As to `C[C@]1(C#N)C[C@](N)(c2ncc(-c3nc4c5c(nn4cc3F)[C@H]3C[C@@H]5c4c(OC(F)F)cccc4C(=O)N3)cn2)C1` [Example 235], the half-inhibitory concentration (IC50) is < 25 nM.

Consider `[2H]C([2H])([2H])N1C(=O)c2cccc(OC(F)F)c2[C@H]2C[C@@H]1c1nn3ccc(-c4cnc([C@]5(C#N)C[C@](C)(N)C5)nc4)nc3c12` [Example 236], for which the concentration for half-maximal inhibition (IC50) was in the range of 100 to 1000 nM.

For the compound `[2H]C([2H])([2H])N1C(=O)c2cccc(OC(F)F)c2[C@H]2C[C@@H]1c1nn3cc(C)c(-c4cnc([C@]5(N)C[C@@](C)(C#N)C5)nc4)nc3c12` [Example 237], the 50% inhibitory concentration (IC50) is < 25 nM.

`[2H]C([2H])([2H])N1C(=O)c2cccc(OC(F)F)c2[C@H]2C[C@@H]1c1nn3ccc(-c4cnc(C5(N)CC5)nc4)nc3c12` [Example 238]: the IC50 was < 25 nM.

With `[2H]C([2H])([2H])N1C(=O)c2cccc(OC(F)F)c2[C@H]2C[C@@H]1c1nn3cc(F)c(-c4cnc(C5(N)CC5)nc4)nc3c12` [Example 239], the half-inhibitory concentration (IC50) was < 25 nM.

`[2H]C([2H])([2H])N1C(=O)c2cccc(OC(F)F)c2[C@H]2C[C@@H]1c1nn3cc(F)c(-c4cnc([C@]5(N)C[C@@](C)(C#N)C5)nc4)cc3c12` [Example 240]: the half-inhibitory concentration (IC50) is < 25 nM.

For the compound `[2H]C([2H])([2H])N1C(=O)c2cccc(OC(F)F)c2[C@H]2C[C@@H]1c1nn3ccc(-c4cnc(C5(N)CCC5)nc4C)cc3c12` [Example 241], the IC50 is < 25 nM.

For the compound `[2H]C([2H])([2H])N1C(=O)c2cccc(OC(F)F)c2[C@H]2C[C@@H]1c1nn3ccc(-c4cnc(C5(N)CCC5)nc4C)nc3c12` [Example 242], the IC50 is < 25 nM.

On to `[2H]C([2H])([2H])N1C(=O)c2cccc(OC(F)F)c2[C@H]2C[C@@H]1c1nn3ccc(-c4cnc(C5(NC)CC5)nc4)nc3c12` [Example 243], for which the IC50 is 25 to 100 nM.

On to `[2H]C([2H])([2H])N1C(=O)c2cccc(OC(F)F)c2[C@H]2C[C@@H]1c1nn3cc(F)c(-c4cnc([C@]5(N)C[C@](C)(C#N)C5)nc4)cc3c12` [Example 244], for which the half-maximal inhibitory concentration (IC50) was < 25 nM.

As to `[2H]C([2H])([2H])N1C(=O)c2cccc(OC(F)F)c2[C@H]2C[C@@H]1c1nn3cnc(-c4cnc(C5(N)CC5)nc4)cc3c12` [Example 245], the half-inhibitory concentration (IC50) was < 25 nM.

As for `[2H]C([2H])([2H])N1C(=O)c2cccc(OC(F)F)c2[C@H]2C[C@@H]1c1nn3ccc(-c4cnc([C@]5(O)C[C@@](C)(N)C5)c(F)c4)cc3c12` [Example 246], the IC50 was < 25 nM.

As for `[2H]C([2H])([2H])N1C(=O)c2cccc(OC(F)F)c2[C@H]2C[C@@H]1c1nn3ccc(-c4cnc(C5(N)COC5)cn4)cc3c12` [Example 247], the concentration for half-maximal inhibition (IC50) is < 25 nM.

Regarding `[2H]C([2H])([2H])N1C(=O)c2cccc(OC(F)F)c2[C@H]2C[C@@H]1c1nn3ccc(-c4cnc(C5(N)CCC5)nc4)cc3c12` [Example 248], the IC50 was < 25 nM.

Regarding `[2H]C([2H])([2H])N1C(=O)c2cccc(OC(F)F)c2[C@H]2C[C@@H]1c1nn3ccc(-c4cnc([C@]5(O)C[C@@](C)(C#N)C5)c(F)c4)nc3c12` [Example 249], the IC50 was < 25 nM.

Consider `[2H]C([2H])([2H])N1C(=O)c2cccc(OC(F)F)c2[C@H]2C[C@@H]1c1nn3ccc(-c4cnc(C5(N)CCC5)c(F)c4)cc3c12` [Example 250], for which the half-inhibitory concentration (IC50) is < 25 nM.

As to `[2H]C([2H])([2H])N1C(=O)c2cccc(OC)c2[C@H]2C[C@@H]1c1nn3ccc(-c4cnc(C5(N)CCC5)nc4)cc3c12` [Example 251], the IC50 was < 25 nM.

For the compound `[2H]C([2H])([2H])N1C(=O)c2cccc(OC(F)F)c2[C@H]2C[C@@H]1c1nn3ccc(-c4cnc([C@]5(O)C[C@@](C)(N)C5)cn4)cc3c12` [Example 253], the concentration for half-maximal inhibition (IC50) was < 25 nM.

Regarding `[2H]C([2H])([2H])N1C(=O)c2cccc(OC(F)F)c2[C@H]2C[C@@H]1c1nn3ccc(-c4cnc(C(C)(C)N)nc4)cc3c12` [Example 254], the half-maximal inhibitory concentration (IC50) was < 25 nM.

On to `[2H]C([2H])([2H])N1C(=O)c2cccc(OC(F)F)c2[C@H]2C[C@@H]1c1nn3ccc(-c4cnc(C5(N)CC5)nc4)cc3c12` [Example 255], for which the 50% inhibitory concentration (IC50) was < 25 nM.

On to `[2H]C([2H])([2H])N1C(=O)c2cccc(OC(F)F)c2[C@H]2C[C@@H]1c1nn3cc(F)c(-c4cnc([C@]5(O)C[C@@](C)(N)C5)c(F)c4)cc3c12` [Example 256], for which the IC50 was < 25 nM.

Take `[2H]C([2H])([2H])N1C(=O)c2cccc(OC(F)F)c2[C@H]2C[C@@H]1c1nn3ccc(-c4cnc([C@H](N)C5CC5)nc4)cc3c12` [Example 257]: the IC50 is < 25 nM.

As to `[2H]C([2H])([2H])N1C(=O)c2cccc(OC(F)F)c2[C@H]2C[C@@H]1c1nn3ccc(-c4cnc([C@@H](N)C5CC5)nc4)cc3c12` [Example 258], the IC50 is < 25 nM.

As to `[2H]C([2H])([2H])N1C(=O)c2cccc(OC(F)F)c2[C@H]2C[C@@H]1c1nn3cc(C)c(-c4cnc([C@]5(N)C[C@@](C)(C#N)C5)nc4)cc3c12` [Example 259], the IC50 was < 25 nM.

Take `[2H]C([2H])([2H])N1C(=O)c2cccc(OC(F)F)c2[C@H]2C[C@@H]1c1nn3cc(F)c(-c4cnc([C@]5(O)C[C@@](C)(N)C5)cn4)cc3c12` [Example 260]: the concentration for half-maximal inhibition (IC50) was 25 to 100 nM.

On to `[2H]C([2H])([2H])N1C(=O)c2cccc(OC(F)F)c2[C@H]2C[C@@H]1c1nn3cnc(-c4cnc([C@]5(O)C[C@@](C)(N)C5)nc4)cc3c12` [Example 261], for which the IC50 is 25 to 100 nM.

Consider `[2H]C([2H])([2H])N1C(=O)c2cccc(OC(F)F)c2[C@H]2C[C@@H]1c1nn3cnc(-c4cnc(C5(N)CCC5)nc4)cc3c12` [Example 262], for which the half-inhibitory concentration (IC50) is < 25 nM.

With `[2H]C([2H])([2H])N1C(=O)c2cccc(OC(F)F)c2[C@H]2C[C@@H]1c1nn3cnc(-c4cnc([C@]5(N)C[C@@](C)(O)C5)nc4C)cc3c12` [Example 263], the IC50 was < 25 nM.

Consider `[2H]C([2H])([2H])N1C(=O)c2cccc(OC(F)F)c2[C@H]2C[C@@H]1c1nn3ccc(-c4cnc([C@](C)(N)CC#N)nc4)cc3c12` [Example 264], for which the 50% inhibitory concentration (IC50) is < 25 nM.

Consider `[2H]C([2H])([2H])N1C(=O)c2cccc(OC(F)F)c2[C@H]2C[C@@H]1c1nn3ccc(-c4cnc([C@@](C)(N)CC#N)nc4)cc3c12` [Example 265], for which the half-maximal inhibitory concentration (IC50) is < 25 nM.

Values taken from patent publication US12410179B2, “Modulators of TNF alpha activity and uses thereof” (RayThera, Inc., priority 2023, dated 2025).
